A word on the IC50: it is the midpoint of a concentration-inhibition curve. Low readings indicate higher potency, high ones lower potency.

Test [1] concerns the target T1, ER-α in MCF-7 cells (Homo sapiens, UniProt P03372).
T1 construct: endogenous in cells; host or cells: MCF-7
T1 sequence (P03372 1-595): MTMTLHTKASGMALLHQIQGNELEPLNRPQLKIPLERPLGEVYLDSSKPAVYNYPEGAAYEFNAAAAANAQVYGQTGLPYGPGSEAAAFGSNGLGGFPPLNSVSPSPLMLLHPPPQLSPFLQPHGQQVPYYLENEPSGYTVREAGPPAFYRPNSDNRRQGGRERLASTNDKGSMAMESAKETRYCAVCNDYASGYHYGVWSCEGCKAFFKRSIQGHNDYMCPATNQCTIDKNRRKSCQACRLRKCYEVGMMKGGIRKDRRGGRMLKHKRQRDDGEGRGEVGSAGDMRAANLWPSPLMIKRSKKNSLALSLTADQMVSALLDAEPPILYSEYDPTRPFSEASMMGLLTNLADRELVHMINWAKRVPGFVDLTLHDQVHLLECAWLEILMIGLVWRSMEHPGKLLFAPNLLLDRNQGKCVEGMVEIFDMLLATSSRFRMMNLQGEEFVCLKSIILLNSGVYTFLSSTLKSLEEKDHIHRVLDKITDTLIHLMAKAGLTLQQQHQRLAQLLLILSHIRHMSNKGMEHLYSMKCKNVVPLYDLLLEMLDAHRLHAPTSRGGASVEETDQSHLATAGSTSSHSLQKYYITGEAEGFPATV
Put plainly: Breast Cancer Cell ER-α In Cell Western Assay (SP1). The note with it: 4 or 24 hr post compound addition; for Emax: MCF7, SP1 antibody, read-out: ER-α In Cell Western Assay (SP1) Max Response; for DC50: SP1 antibody, read-out: ER-α In Cell Western Assay (SP1) IC50. It is filed as cell-based. The method, boiled down:
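MCF-7 cells in charcoal-stripped FBS medium, treated with 11-point semilog dilutions (0.3–0.000003 μM final) for 4 or 24 h. Fixed cells immunostained with SP1 antibody (800 nm) and DRAQ5 DNA (700 nm); ER/DNA ratio expressed as % of untreated cells.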

Test [2] concerns MCF-7 cells. Put plainly: Breast Cancer Cell Viability Assays (MCF-7, CellTiter-Glo). Format: cell-based. The note with it: 5 days' compound exposure; for IC50: Homo sapiens, MCF7, 120 h. The method, boiled down: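 MCF-7 cells (320/well, RPMI with 10% FBS) exposed for 5 days to an eleven-point semilog series, 0.3–0.000003 μM final. Viability read by CellTiter-Glo luminescence, expressed as background-corrected percent of untreated cells.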

Consider `COc1ccc(/C(=C(\c2ccc(/C=C/C(=O)O)cc2)c2ccc3nccn3c2)C2CCC2)c(Cl)c1` [Example 228, (E)-3-(4-((E)-2-(2-Chloro-4-methoxyphenyl)-2-cyclobutyl-1-(imidazo[1,2-a]pyridin-6-yl)vinyl)phenyl)acrylic acid], for which, in test [1], the Emax was not below 40% and the DC50 is not above 100 nM. For the same compound, in test [2], the “MCF7 Viability Assay Max Response” value is “++ (++ = a single % value ≧ 40%)” and the IC50 was not above 100 nM.

Take `COc1ccc(/C(=C(\c2ccc(/C=C/C(=O)O)cc2)c2ccc3nccn3c2)C2CCC2)c(C)c1` [Example 229, (E)-3-(4-((E)-2-Cyclobutyl-1-(imidazo[1,2-a]pyridin-6-yl)-2-(4-methoxy-2-methylphenyl)vinyl)phenyl)acrylic acid]: in test [1], the Emax was not below 40% and the DC50 is not above 100 nM. In test [2], the “MCF7 Viability Assay Max Response” value is on record as “++ (++ = a single % value ≧ 40%)” and the IC50 was not above 100 nM.

Turning to `CCOc1ccc(/C(=C(\c2ccc(/C=C/C(=O)O)cc2)c2ccc3[nH]nc(F)c3c2)C2CCC2)c(Cl)c1` [Example 230, (E)-3-(4-((E)-2-(2-Chloro-4-ethoxyphenyl)-2-cyclobutyl-1-(3-fluoro-1H-indazol-5-yl)vinyl)phenyl)acrylic acid], in test [1], the Emax was not below 40% and the DC50 is not above 100 nM. Moreover, in test [2], the “MCF7 Viability Assay Max Response” value is “++ (++ = a single % value ≧ 40%)” and the IC50 was not above 100 nM.

For `O=C(O)/C=C/c1ccc(/C(=C(\c2ccc(C(F)(F)F)cc2Cl)C2CCC2)c2ccc3nccn3c2)cc1` [Example 231, (E)-3-(4-((E)-2-(2-Chloro-4-(trifluoromethyl)phenyl)-2-cyclobutyl-1-(imidazo[1,2-a]pyridin-6-yl)vinyl)phenyl)acrylic acid], in test [1], the Emax is not below 40% and the DC50 was not above 100 nM. Moreover, in test [2], the “MCF7 Viability Assay Max Response” value was “++ (++ = a single % value ≧ 40%)” and the 50% inhibitory concentration (IC50) was not above 100 nM.

Turning to `COc1ccc(/C(=C(\c2ccc(/C=C/C(=O)O)cc2)c2ccc3scnc3c2)C2CCC2)c(Cl)c1` [Example 232, (E)-3-(4-((E)-1-(Benzo[d]thiazol-5-yl)-2-(2-chloro-4-methoxyphenyl)-2-cyclobutylvinyl)phenyl)acrylic acid], in test [1], the Emax was not below 40% and the DC50 is not above 100 nM. Also, in test [2], the “MCF7 Viability Assay Max Response” value is “++ (++ = a single % value ≧ 40%)” and the IC50 was not above 100 nM.

Consider `O=C(O)/C=C/c1ccc(/C(=C(\c2ccc(CO)cc2Cl)C2CCC2)c2ccc3scnc3c2)cc1` [Example 233, (E)-3-(4-((E)-1-(Benzo[d]thiazol-5-yl)-2-(2-chloro-4-(hydroxymethyl)phenyl)-2-cyclobutylvinyl)phenyl)acrylic acid], for which, in test [1], the Emax is not below 40% and the DC50 is not above 100 nM. Further, in test [2], the “MCF7 Viability Assay Max Response” value is reported as “++ (++ = a single % value ≧ 40%)” and the IC50 was not above 100 nM.

As for `O=C(O)/C=C/c1ccc(/C(=C(\c2ccccc2Cl)C2CCC2)c2ccc3scnc3c2)cc1` [Example 234, (E)-3-(4-((E)-1-(Benzo[d]thiazol-5-yl)-2-(2-chlorophenyl)-2-cyclobutylvinyl)phenyl)acrylic acid], in test [1], the Emax was not below 40% and the DC50 is not above 100 nM. In addition, in test [2], the “MCF7 Viability Assay Max Response” value was “++ (++ = a single % value ≧ 40%)” and the concentration for half-maximal inhibition (IC50) is not above 100 nM.

In the case of `O=C(O)/C=C/c1ccc(/C(=C(\c2cccc(F)c2Cl)C2CCC2)c2ccc3scnc3c2)cc1` [Example 235, (E)-3-(4-((E)-1-(Benzo[d]thiazol-5-yl)-2-(2-chloro-3-fluorophenyl)-2-cyclobutylvinyl)phenyl)acrylic acid], in test [1], the Emax was not below 40% and the DC50 is not above 100 nM. Further, in test [2], the “MCF7 Viability Assay Max Response” value is “++ (++ = a single % value ≧ 40%)” and the IC50 was not above 100 nM.

`O=C(O)/C=C/c1ccc(/C(=C(\c2cc(F)ccc2Cl)C2CCC2)c2ccc3scnc3c2)cc1` [Example 236, (E)-3-(4-((E)-1-(Benzo[d]thiazol-5-yl)-2-(2-chloro-5-fluorophenyl)-2-cyclobutylvinyl)phenyl)acrylic acid]: in test [1], the Emax is not below 40% and the DC50 was not above 100 nM. In test [2], the “MCF7 Viability Assay Max Response” value was “++ (++ = a single % value ≧ 40%)” and the half-maximal inhibitory concentration (IC50) was not above 100 nM.

For `Cc1cc(CO)ccc1/C(=C(\c1ccc(/C=C/C(=O)O)cc1)c1ccc2scnc2c1)C1CCC1` [Example 237, (E)-3-(4-((E)-1-(Benzo[d]thiazol-5-yl)-2-cyclobutyl-2-(4-(hydroxymethyl)-2-methylphenyl)vinyl)phenyl)acrylic acid], in test [1], the Emax was not below 40% and the DC50 is not above 100 nM. For the same compound, in test [2], the “MCF7 Viability Assay Max Response” value is on record as “++ (++ = a single % value ≧ 40%)” and the IC50 was not above 100 nM.

For the compound `Cc1ccccc1/C(=C(\c1ccc(/C=C/C(=O)O)cc1)c1ccc2scnc2c1)C1CCC1` [Example 238, (E)-3-(4-((E)-1-(Benzo[d]thiazol-5-yl)-2-cyclobutyl-2-(o-tolyl)vinyl)phenyl)acrylic acid], in test [1], the Emax was not below 40% and the DC50 is not above 100 nM. In test [2], the “MCF7 Viability Assay Max Response” value is “++ (++ = a single % value ≧ 40%)” and the IC50 is not above 100 nM.

Turning to `Cc1cc(F)ccc1/C(=C(\c1ccc(/C=C/C(=O)O)cc1)c1ccc2scnc2c1)C1CCC1` [Example 239, (E)-3-(4-((E)-1-(Benzo[d]thiazol-5-yl)-2-cyclobutyl-2-(4-fluoro-2-methylphenyl)vinyl)phenyl)acrylic acid], in test [1], the Emax is not below 40% and the DC50 was not above 100 nM. Moreover, in test [2], the “MCF7 Viability Assay Max Response” value is given as “++ (++ = a single % value ≧ 40%)” and the IC50 is not above 100 nM.

Turning to `COc1ccc(/C(=C(\c2ccc(/C=C/C(=O)O)cc2)c2ccc3scnc3c2)C2CCC2)c(C)c1` [Example 240, (E)-3-(4-((E)-1-(Benzo[d]thiazol-5-yl)-2-cyclobutyl-2-(4-methoxy-2-methylphenyl)vinyl)phenyl)acrylic acid], in test [1], the Emax was not below 40% and the DC50 is not above 100 nM. Besides, in test [2], the “MCF7 Viability Assay Max Response” value is on record as “++ (++ = a single % value ≧ 40%)” and the IC50 is not above 100 nM.

With `O=C(O)/C=C/c1ccc(/C(=C(\c2ccc(OC(F)(F)F)cc2Cl)C2CCC2)c2ccc3scnc3c2)cc1` [Example 241, (E)-3-(4-((E)-1-(Benzo[d]thiazol-5-yl)-2-(2-chloro-4-(trifluoromethoxy)phenyl)-2-cyclobutylvinyl)phenyl)acrylic acid], in test [1], the Emax was not below 40% and the DC50 is not above 100 nM. In test [2], the “MCF7 Viability Assay Max Response” value is “++ (++ = a single % value ≧ 40%)” and the IC50 is not above 100 nM.

In the case of `N#Cc1cc(C(F)(F)F)ccc1/C(=C(\c1ccc(/C=C/C(=O)O)cc1)c1ccc2scnc2c1)C1CCC1` [Example 242, (E)-3-(4-((E)-1-(Benzo[d]thiazol-5-yl)-2-(2-cyano-4-(trifluoromethyl)phenyl)-2-cyclobutylvinyl)phenyl)acrylic acid], in test [1], the Emax is not below 40% and the DC50 was not above 100 nM. Moreover, in test [2], the “MCF7 Viability Assay Max Response” value is recorded as “++ (++ = a single % value ≧ 40%)” and the IC50 is not above 100 nM.

Turning to `N#Cc1cc(C(F)(F)F)ccc1/C(=C(\c1ccc(/C=C/C(=O)O)cc1)c1ccc2[nH]nc(F)c2c1)C1CCC1` [Example 243, (E)-3-(4-((E)-2-(2-Cyano-4-(trifluoromethyl)phenyl)-2-cyclobutyl-1-(3-fluoro-1H-indazol-5-yl)vinyl)phenyl)acrylic acid], in test [1], the Emax is not below 40% and the DC50 is not above 100 nM. For the same compound, in test [2], the “MCF7 Viability Assay Max Response” value is listed as “++ (++ = a single % value ≧ 40%)” and the IC50 was not above 100 nM.

As to `O=C(O)/C=C/c1ccc(/C(=C(\c2ncc(C(F)(F)F)cc2Cl)C2CCC2)c2ccc3scnc3c2)cc1` [Example 244, (E)-3-(4-((E)-1-(Benzo[d]thiazol-5-yl)-2-(3-chloro-5-(trifluoromethyl)pyridin-2-yl)-2-cyclobutylvinyl)phenyl)acrylic acid], in test [1], the Emax is not below 40% and the DC50 was not above 100 nM. Also, in test [2], the “MCF7 Viability Assay Max Response” value was “++ (++ = a single % value ≧ 40%)” and the IC50 was not above 100 nM.

On to `COc1cc(C)c(/C(=C(\c2ccc(/C=C/C(=O)O)cc2)c2cccc3[nH]nc(F)c23)C2CCC2)cn1` [Example 245, (E)-3-(4-((E)-2-Cyclobutyl-1-(3-fluoro-1H-indazol-4-yl)-2-(6-methoxy-4-methylpyridin-3-yl)vinyl)phenyl)acrylic acid], for which, in test [1], the Emax was not below 40% and the DC50 is not above 100 nM. Further, in test [2], the “MCF7 Viability Assay Max Response” value is recorded as “++ (++ = a single % value ≧ 40%)” and the IC50 was not above 100 nM.

(Values after patent US9499538B2, “Estrogen receptor modulators and uses thereof” (Seragon Pharmaceuticals, Inc., priority 2012, dated 2016).)
